Counter-ions that a name gives are not always drawn.
Target: T1, Human Polθ polymerase domain (aa1820-2590) (Homo sapiens, UniProt O75417)
T1 construct: Human Polθ polymerase domain (aa1820-2590) was expressed in E. Coli; made in house; host or cells: E. coli
T1 sequence (O75417 1820-2590): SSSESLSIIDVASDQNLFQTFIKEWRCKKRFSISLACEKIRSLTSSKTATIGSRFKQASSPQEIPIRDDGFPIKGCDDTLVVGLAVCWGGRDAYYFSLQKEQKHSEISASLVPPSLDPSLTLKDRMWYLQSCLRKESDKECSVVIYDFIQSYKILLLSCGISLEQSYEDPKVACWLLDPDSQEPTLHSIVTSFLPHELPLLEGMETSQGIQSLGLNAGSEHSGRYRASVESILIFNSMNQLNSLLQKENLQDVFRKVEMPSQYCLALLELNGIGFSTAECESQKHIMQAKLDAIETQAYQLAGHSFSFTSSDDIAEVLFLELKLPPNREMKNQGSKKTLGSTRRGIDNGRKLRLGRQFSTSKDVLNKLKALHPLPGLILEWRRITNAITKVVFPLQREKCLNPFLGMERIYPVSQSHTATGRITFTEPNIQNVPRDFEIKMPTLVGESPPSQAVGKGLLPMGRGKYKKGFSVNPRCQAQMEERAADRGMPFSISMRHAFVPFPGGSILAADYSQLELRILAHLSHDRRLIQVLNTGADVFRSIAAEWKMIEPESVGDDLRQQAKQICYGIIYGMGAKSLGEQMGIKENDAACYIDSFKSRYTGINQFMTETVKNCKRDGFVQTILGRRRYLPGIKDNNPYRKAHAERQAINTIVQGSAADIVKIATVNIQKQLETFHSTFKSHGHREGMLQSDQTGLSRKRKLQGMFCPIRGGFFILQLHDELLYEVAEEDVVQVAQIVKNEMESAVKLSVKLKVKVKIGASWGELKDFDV
Assay: Polθ Polymerase Domain WT KI Assay (PicoGreen)
Type: biochemical
Details: 100 nM DNA substrate, 0.156 nM Polθ, initial rates vs inhibitor concentration
How it was run: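 E. coli-expressed human Polθ polymerase domain (aa1820-2590) on annealed DNA II Short/Long primer-template (1.2:1), in 25 mM Tris pH 7.5, NaCl, 5% glycerol, 0.01% Triton X-100, 0.1 mg/ml BSA, 1 mM DTT, 1% DMSO. EDTA-quenched timepoints to 180 min, PicoGreen fluorescence. Initial rates vs inhibitor concentration fitted four-parameter for KI.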

| SMILES | Ki [nM] |
| --- | --- |
| Cc1cc(C(F)(F)F)cc(N2C(=O)C[C@@H]3CN(CCN4CCNCC4)c4c(C)cccc4N(C)C(=O)[C@H]32)n1 [Example 16, (3aR,11aS)-6,10-Dimethyl-1-(6-methyl-4-(trifluoromethyl)pyridin-2-yl)-5-(2-(piperazin-1-yl)ethyl)-1,3a,4,5,10,11a-hexahydro-2H-benzo[b]pyrrolo[2,3-f][1,4]diazocine-2,11(3H)-dione] | 1.2 |
| Cc1cc(C(F)(F)F)cc(N2C(=O)C[C@@H]3CN(CCN4CCN5C(=O)COC[C@H]5C4)c4c(Cl)cccc4N(C)C(=O)[C@H]32)n1 [Example 43, (3aR,11aS)-6-Chloro-10-methyl-1-(6-methyl-4-(trifluoromethyl)pyridin-2-yl)-5-(2-((R)-4-oxohexahydropyrazino[2,1-c][1,4]oxazin-8(1H)-yl)ethyl)-1,3a,4,5,10,11a-hexahydro-2H-benzo[b]pyrrolo[2,3-f][1,4]diazocine-2,11(3H)-dione] | 3.05 |
| Cc1cc(C(F)(F)F)cc(N2C(=O)C[C@@H]3CN(CCCO)c4c(F)cccc4N(C)C(=O)[C@H]32)n1 [Example 127, (3aR,11aS)-6-Fluoro-5-(3-hydroxypropyl)-10-methyl-1-(6-methyl-4-(trifluoromethyl)pyridin-2-yl)-1,3a,4,5,10,11a-hexahydro-2H-benzo[b]pyrrolo[2,3-f][1,4]diazocine-2,11(3H)-dione] | 7.21 |
| Cc1cc(C(F)(F)F)cc(N2C(=O)C[C@@H]3CN(CCN4CCN[C@H](C)C4)c4c(Cl)cccc4N(C)C(=O)[C@H]32)n1 [Example 9, (3aR,11aS)-6-Chloro-10-methyl-1-(6-methyl-4-(trifluoromethyl)pyridin-2-yl)-5-(2-((R)-3-methylpiperazin-1-yl)ethyl)-1,3a,4,5,10,11a-hexahydro-2H-benzo[b]pyrrolo[2,3-f][1,4]diazocine-2,11(3H)-dione] | 1.4 |
| Cc1cc(C(F)(F)F)cc(N2C(=O)C[C@@H]3CN(CCN4CC[C@H](C#N)C4)c4c(C)cccc4N(C)C(=O)[C@H]32)n1 [Example 70, (S)-1-(2-((3aR,11aS)-6,10-Dimethyl-1-(6-methyl-4-(trifluoromethyl)pyridin-2-yl)-2,11-dioxo-1,2,3,3a,4,10,11,11a-octahydro-5H-benzo[b]pyrrolo[2,3-f][1,4]diazocin-5-yl)ethyl)pyrrolidine-3-carbonitrile] | 0.692 |
| Cc1cc(C(F)(F)F)cc(N2C(=O)C[C@@H]3CN(CCN4CCN(C)[C@@H](CO)C4)c4c(C)cccc4N(C)C(=O)[C@H]32)n1 [Example 63, (3aR,11aS)-5-(2-((R)-3-(Hydroxymethyl)-4-methylpiperazin-1-yl)ethyl)-6,10-dimethyl-1-(6-methyl-4-(trifluoromethyl)pyridin-2-yl)-1,3a,4,5,10,11a-hexahydro-2H-benzo[b]pyrrolo[2,3-f][1,4]diazocine-2,11(3H)-dione] | 1.07 |
| Cc1cc(C(F)(F)F)cc(N2C(=O)C[C@@H]3CN(CCCN(C)C)c4c(C)cccc4N(C)C(=O)[C@H]32)n1 [Example 128, (3aR,11aS)-5-(3-(Dimethylamino)propyl)-6,10-dimethyl-1-(6-methyl-4-(trifluoromethyl)pyridin-2-yl)-1,3a,4,5,10,11a-hexahydro-2H-benzo[b]pyrrolo[2,3-f][1,4]diazocine-2,11(3H)-dione] | 1.39 |
| Cc1cc(C(F)(F)F)cc(N2C(=O)C[C@@H]3CN(C[C@H]4COCCN4)c4c(C)cccc4N(C)C(=O)[C@H]32)n1 (racemic) [Example 112b, (3aR,11aS)-6,10-Dimethyl-1-(6-methyl-4-(trifluoromethyl)pyridin-2-yl)-5-(((S/R)-morpholin-3-yl)methyl)-1,3a,4,5,10,11a-hexahydro-2H-benzo[b]pyrrolo[2,3-f][1,4]diazocine-2,11(3H)-dione] | 1.81 |
| Cc1cc(C(F)(F)F)cc(N2C(=O)C[C@@H]3CN(Cc4nc5n(c4C)CCN(C)C5)c4c(C)cccc4N(C)C(=O)[C@H]32)n1 [Example 82, (3aR,11aS)-5-((3,7-Dimethyl-5,6,7,8-tetrahydroimidazo[1,2-a]pyrazin-2-yl)methyl)-6,10-dimethyl-1-(6-methyl-4-(trifluoromethyl)pyridin-2-yl)-1,3a,4,5,10,11a-hexahydro-2H-benzo[b]pyrrolo[2,3-f][1,4]diazocine-2,11(3H)-dione] | 0.431 |
| Cc1cc(C(F)(F)F)cc(N2C(=O)C[C@@H]3CN(CCN4CC[C@H](O)C4)c4c(Cl)cccc4N(C)C(=O)[C@H]32)n1 [Example 32, (3aR,11aS)-6-Chloro-5-(2-((S)-3-hydroxypyrrolidin-1-yl)ethyl)-10-methyl-1-(6-methyl-4-(trifluoromethyl)pyridin-2-yl)-1,3a,4,5,10,11a-hexahydro-2H-benzo[b]pyrrolo[2,3-f][1,4]diazocine-2,11(3H)-dione] | 6.78 |
| Cc1cc(C(F)(F)F)cc(N2C(=O)C[C@@H]3CN(Cc4ccc5c(c4)CN(C)C5)c4c(F)cccc4N(C)C(=O)[C@H]32)n1 [Example 123, (3aR,11aS)-6-Fluoro-10-methyl-1-(6-methyl-4-(trifluoromethyl)pyridin-2-yl)-5-((2-methylisoindolin-5-yl)methyl)-1,3a,4,5,10,11a-hexahydro-2H-benzo[b]pyrrolo[2,3-f][1,4]diazocine-2,11(3H)-dione hydrochloride] | 2.2 |
| Cc1cc(C(F)(F)F)cc(N2C(=O)C[C@@H]3CN(C[C@@H]4CCCCN4)c4c(Cl)cccc4N(C)C(=O)[C@H]32)n1 (racemic) [Example 105b, (3aR,11aS)-6-Chloro-10-methyl-1-(6-methyl-4-(trifluoromethyl)pyridin-2-yl)-5-(((S/R)-piperidin-2-yl)methyl)-1,3a,4,5,10,11a-hexahydro-2H-benzo[b]pyrrolo[2,3-f][1,4]diazocine-2,11(3H)-dione] | 2.98 |

More lines, in order of falling Ki, values ahead:

| Ki [nM] | SMILES |
| --- | --- |
| 11.3 | Cc1cc(C(F)(F)F)cc(N2C(=O)C[C@@H]3CN(CC4CCNCC4)c4c(F)cccc4N(C)C(=O)[C@H]32)n1 [Example 77, (3aR,11aS)-6-Fluoro-10-methyl-1-(6-methyl-4-(trifluoromethyl)pyridin-2-yl)-5-(piperidin-4-ylmethyl)-1,3a,4,5,10,11a-hexahydro-2H-benzo[b]pyrrolo[2,3-f][1,4]diazocine-2,11(3H)-dione Hydrochloride] |
| 8.33 | C=CCN1C[C@H]2CC(=O)N(c3cc(C(F)(F)F)cc(C)n3)[C@@H]2C(=O)N(C)c2cccc(F)c21 [Example 4, (3aR,11aS)-5-Allyl-6-fluoro-10-methyl-1-(6-methyl-4-(trifluoromethyl)pyridin-2-yl)-1,3a,4,5,10,11a-hexahydro-2H-benzo[b]pyrrolo[2,3-f][1,4]diazocine-2,11(3H)-dione] |
| 4.91 | Cc1cc(C(F)(F)F)cc(N2C(=O)C[C@@H]3CN(Cc4nc5n(n4)CCNC5)c4c(F)cccc4N(C)C(=O)[C@H]32)n1 [Example 98, (3aR,11aS)-6-Fluoro-10-methyl-1-(6-methyl-4-(trifluoromethyl)pyridin-2-yl)-5-((5,6,7,8-tetrahydro-[1,2,4]triazolo[1,5-a]pyrazin-2-yl)methyl)-1,3a,4,5,10,11a-hexahydro-2H-benzo[b]pyrrolo[2,3-f][1,4]diazocine-2,11(3H)-dione] |
| 1.38 | Cc1cc(C(F)(F)F)cc(N2C(=O)C[C@@H]3CN(CCN4CCN(C)C[C@@H]4CO)c4c(C)cccc4N(C)C(=O)[C@H]32)n1 [Example 65, (3aR,11aS)-5-(2-((R)-2-(Hydroxymethyl)-4-methylpiperazin-1-yl)ethyl)-6,10-dimethyl-1-(6-methyl-4-(trifluoromethyl)pyridin-2-yl)-1,3a,4,5,10,11a-hexahydro-2H-benzo[b]pyrrolo[2,3-f][1,4]diazocine-2,11(3H)-dione dihydrochloride] |
| 1.21 | CC(=O)N1CCN(CCN2C[C@H]3CC(=O)N(c4cc(C(F)(F)F)cc(C)n4)[C@@H]3C(=O)N(C)c3cccc(C)c32)[C@@H](C)C1 [Example 74, (3aR,11aS)-5-(2-((S)-4-Acetyl-2-methylpiperazin-1-yl)ethyl)-6,10-dimethyl-1-(6-methyl-4-(trifluoromethyl)pyridin-2-yl)-1,3a,4,5,10,11a-hexahydro-2H-benzo[b]pyrrolo[2,3-f][1,4]diazocine-2,11(3H)-dione] |
| 0.711 | Cc1cc(C(F)(F)F)cc(N2C(=O)C[C@@H]3CN(CCN4CCOC[C@@H]4C)c4c(Cl)cccc4N(C)C(=O)[C@H]32)n1 [Example 25, (3aR,11aS)-6-Chloro-10-methyl-1-(6-methyl-4-(trifluoromethyl)pyridin-2-yl)-5-(2-((S)-3-methylmorpholino)ethyl)-1,3a,4,5,10,11a-hexahydro-2H-benzo[b]pyrrolo[2,3-f][1,4]diazocine-2,11(3H)-dione] |

Reference: patent US20260124214A1, “HETEROCYCLIC COMPOUNDS FOR USE IN THE TREATMENT OF CANCER” (ARTIOS PHARMA LIMITED, priority 2021, published 2026)
